System: SEM cells
Test: cell viability relative to DMSO control; higher = less cytotoxic
Conditions: 48 h
Procedure, shortened: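 In 1536-well plates, 5 μl of leukemia cells were seeded per well: 500 cells/well for NOMO1 or SEM and 1000 cells/well for P12-Ichikawa. Each line had first been adapted for at least four passages in each medium. Library compounds in DMSO were pin-dosed at 11 threefold concentrations between 47 μM and 0.79 nM, and CellTiter-Glo One luminescence was read after 48 h at 37°C. Viability is a per-plate percentage relative to DMSO wells, with cell-free wells as background.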

[1] = HPLM + 10% dialyzed FBS, 0.000781 µM
[2] = HPLM + 10% dialyzed FBS, 0.00234 µM
[3] = HPLM + 10% dialyzed FBS, 0.00702 µM
[4] = HPLM + 10% dialyzed FBS, 0.0211 µM
[5] = HPLM + 10% dialyzed FBS, 0.0632 µM
[6] = HPLM + 10% dialyzed FBS, 0.19 µM
[7] = HPLM + 10% dialyzed FBS, 0.569 µM
[8] = HPLM + 10% dialyzed FBS, 1.71 µM
[9] = HPLM + 10% dialyzed FBS, 5.12 µM
[10] = HPLM + 10% dialyzed FBS, 15.4 µM
[11] = HPLM + 10% dialyzed FBS, 46.1 µM
[12] = RPMI 5 mM glucose + 10% FBS, 0.000781 µM
[13] = RPMI 5 mM glucose + 10% FBS, 0.00234 µM
[14] = RPMI 5 mM glucose + 10% FBS, 0.00702 µM
[15] = RPMI 5 mM glucose + 10% FBS, 0.0211 µM
[16] = RPMI 5 mM glucose + 10% FBS, 0.0632 µM
[17] = RPMI 5 mM glucose + 10% FBS, 0.19 µM
[18] = RPMI 5 mM glucose + 10% FBS, 0.569 µM
[19] = RPMI 5 mM glucose + 10% FBS, 1.71 µM
[20] = RPMI 5 mM glucose + 10% FBS, 5.12 µM
[21] = RPMI 5 mM glucose + 10% FBS, 15.4 µM
[22] = RPMI 5 mM glucose + 10% FBS, 46.1 µM
[23] = RPMI 5 mM glucose + 10% dialyzed FBS, 0.000781 µM
[24] = RPMI 5 mM glucose + 10% dialyzed FBS, 0.00234 µM
[25] = RPMI 5 mM glucose + 10% dialyzed FBS, 0.00702 µM
[26] = RPMI 5 mM glucose + 10% dialyzed FBS, 0.0211 µM
[27] = RPMI 5 mM glucose + 10% dialyzed FBS, 0.0632 µM
[28] = RPMI 5 mM glucose + 10% dialyzed FBS, 0.19 µM
[29] = RPMI 5 mM glucose + 10% dialyzed FBS, 0.569 µM
[30] = RPMI 5 mM glucose + 10% dialyzed FBS, 1.71 µM
[31] = RPMI 5 mM glucose + 10% dialyzed FBS, 5.12 µM
[32] = RPMI 5 mM glucose + 10% dialyzed FBS, 15.4 µM
[33] = RPMI 5 mM glucose + 10% dialyzed FBS, 46.1 µM

Compound	cell viability [1]	cell viability [2]	cell viability [3]	cell viability [4]	cell viability [5]	cell viability [6]	cell viability [7]	cell viability [8]	cell viability [9]	cell viability [10]	cell viability [11]	cell viability [12]	cell viability [13]	cell viability [14]	cell viability [15]	cell viability [16]	cell viability [17]	cell viability [18]	cell viability [19]	cell viability [20]	cell viability [21]	cell viability [22]	cell viability [23]	cell viability [24]	cell viability [25]	cell viability [26]	cell viability [27]	cell viability [28]	cell viability [29]	cell viability [30]	cell viability [31]	cell viability [32]	cell viability [33]
N=C(CCSCc1csc(N=C(N)N)n1)N[S+](N)(=O)[O-]	85.8%	82.3%	96.9%	82.6%	94.5%	99%	109%	98.5%	106%	96.1%	92.6%	89.9%	87.6%	103%	88%	91.8%	102%	99.4%	96.5%	100%	105%	92.2%	80.5%	80.4%	107%	82.2%	89%	93.6%	96.1%	103%	107%	92.6%	116%
CC(C)NCC(O)COc1ccc(COCCOC(C)C)cc1 (stereo unspecified)	110%	115%	122%	103%	124%	105%	129%	132%	116%	110%	118%	106%	124%	130%	120%	132%	118%	109%	123%	121%	131%	105%	123%	125%	124%	115%	117%	129%	118%	138%	106%	126%	114%
C[C@H](O)[C@H]1[C@@H]2[C@H](C)C(=C(\N2C1=O)C(O)=O)/S[C@@H]3CN[C@H](CN[S+](N)([O-])=O)C3	116%	121%	122%	130%	132%	113%	108%	108%	100%	108%	111%	124%	123%	136%	128%	132%	115%	125%	112%	120%	118%	109%											
Cc1cc(OCCCc2c(C(=O)O)n(Cc3cccnc3)c3c(-c4c(COc5ccc(N6CCN([S+](C)(=O)[O-])CC6)cc5)nn(C)c4C)cccc23)cc(C)c1Cl	102%	94.1%	105%	101%	89.4%	91.8%	100%	93.3%	84.9%	81.5%	62.2%	112%	116%	133%	106%	105%	113%	112%	96.9%	111%	91.2%	67.4%	86.7%	94.5%	96.1%	104%	102%	110%	90.7%	91.7%	89.8%	76.4%	53.1%

Source: the supplement of paper PMC11451515
